According to US6365550B1, “Flufenacet-based herbicidal compositions” (Bayer Aktiengesellschaft, priority 1999, dated 2002):

Key:
Test in all cases: Post-emergence test/greenhouse
Assay type in all cases: in vivo
Conditions in all cases: scored after three weeks vs untreated control
Alopercurus myosuroides = system: Alopercurus myosuroides
Procedure: (§1) Commercial formulations of the active compounds involved were used. The active compound concentrations required for the experiments were prepared by dilution with water.
(§2) Test plants which have a height of 5 to 15 cm are sprayed with the active compound preparation in such a way that the amounts of active compound desired in each case are applied per unit area. The concentration of the spray mixture is chosen in such a way that the amounts of active compound desired in each case are applied in 500 l water/ha.
(§3) After three weeks, the degree of damage to the plants is scored in % damage in comparison with the development of the untreated control.
(§4) The figures denote the following:
(§5) 0%=no action (like untreated control)

Apera spica-venti = system: Apera spica-venti
Procedure: as §1, §2, §3, §4, §5

Chenopodium album = system: Chenopodium album
Procedure: as §1, §2, §3, §4, §5

Echinochloa crus-galli = system: Echinochloa crus-galli
Procedure: as §1, §2, §3, §4, §5

SMILES	% damage Alopercurus myosuroides (Alopercurus myosuroides; application rate 60 g a.i./ha)	% damage Apera spica-venti (Apera spica-venti; application rate 60 g a.i./ha)	% damage Chenopodium album (Chenopodium album; application rate 60 g a.i./ha)	% damage Echinochloa crus-galli (Echinochloa crus-galli; application rate 60 g a.i./ha)	% damage Alopercurus myosuroides (Alopercurus myosuroides; application rate 30 g a.i./ha)	% damage Apera spica-venti (Apera spica-venti; application rate 30 g a.i./ha)	% damage Chenopodium album (Chenopodium album; application rate 30 g a.i./ha)	% damage Echinochloa crus-galli (Echinochloa crus-galli; application rate 30 g a.i./ha)
CC(C)N(C(=O)COc1nnc(C(F)(F)F)s1)c1ccc(F)cc1 [(I), N-(4fluoro-phenyl)-N-(i-propyl)-2-(5-trifluoromethyl-1,3,4-thiadiazol-2-yl-oxy)-acetamide]	60%	60%	0%	60%				
CC(C)N.O=C(O)CNCP(=O)(O)O [(II-1), N-phosphonomethyl-glycine i-propyl-ammonium salt]					0%	0%	0%	0%
